# Values quoted from earlier work in patent US20240335377A1, “COMPOSITION AND METHODS OF TREATMENT USING TRANSDERMAL SUPPLEMENTATION” (Xygenyx Inc., priority 2023, published 2024).
# Where a SMILES comes first, the peptide text is derived from it. [ ]: non-standard residue; d: D form. Cit = NC(=O)NCCC[C@H](N)C(=O)O
# Legend:
# skin [1] = details: single penetration enhancer
# [2] = tested on: wide dynamic range neurons in the ventroposterolateral nucleus of the thalamus
# skin [3] = details: topical, concentrations 0.5-5%
# skin [4] = details: topical formulations, within four weeks of treatment
# F2-isoprostane = details: large doses of 1600-3200 IU/day
# [5] = dietary supplementation, doses up to 400 IU/day
# rheumatoid arthritis = rheumatoid arthritis study
# [6] = α-tocopherol taken as 1.0
# [7] = even when dietary intake occurs in equal portions
# markers of inflammation = details: supplementation, individuals with metabolic syndrome
# [8] = in vivo
compound,measurement,setting,value
CC1CCC(C(C)C)C(O)C1 (stereo not shown) [Menthol],increase of transdermal drug uptake (factor),skin [1],≥ 10
"CCCCCc1cc(O)c2c(c1)OC(C)(C)[C@@H]1CCC(C)=C[C@@H]21 [THC, Δ-9-tetrahydrocannabinol]",power in mediating pain relative to morphine,[2],ten times more powerful than morphine
"C=CCCCCCCCCC(=O)N[C@@H](Cc1ccccc1)C(=O)O [UP, Undecylenoyl phenylalanine]",time to skin lightening effects,skin [3],≥ 7 days
"CC12CCC(CC1)C(C)(C)O2 [eucalyptol, Eucalyptol]",increase of transdermal drug uptake (factor),skin [1],more than 10
"C/C(=C\CO)CCC[C@H](C)CCC[C@H](C)CCCC(C)C [phytol, Phytol]",solubility in water,,nearly insoluble in water
"CC[C@H](C)[C@H](NC(=O)[C@H](CC(=O)O)NC(=O)[C@@H](N)CCCCN)C(=O)N[C@@H](CCCNC(N)=O)C(N)=O [tripeptide-10 citrulline, Tripeptide-10 citrulline] (H-KDI[Cit]-NH2)",improvement of suppleness,skin [4],≤ 54%
Cc1c(C)c2c(c(C)c1O)CCC(C)(CCCC(C)CCCC(C)CCCC(C)C)O2 (stereo not drawn) [α-tocopherol],blood plasma concentration of F2-isoprostane,F2-isoprostane,significantly lower
same,reduction of risk of coronary disease,[5],up to 34%
same,reduction of risk of developing neurodegenerative diseases such as Alzheimer's Syndrome or dementia,[5]; controlled trials,≤ 24%
C=C1CC/C=C(\C)CC[C@@H]2[C@@H]1CC2(C)C [β-caryophyllene],"swelling of joints and lymph nodes, circulating and articular leukocytes",rheumatoid arthritis,reduced swelling of joints and lymph nodes as well as the number of circulating and articular leukocytes
Cc1cc(O)c(C)c2c1OC(C)(CCCC(C)CCCC(C)CCCC(C)C)CC2 (stereo not drawn) [β-tocopherol],relative biological activity,[6],0.5
Cc1c(O)cc2c(c1C)OC(C)(CCCC(C)CCCC(C)CCCC(C)C)CC2 (stereo not shown) [γ-tocopherol],relative biological activity,[6],0.1
same,concentration in vivo relative to α-tocopherol,[7],roughly 10%
Cc1cc(O)cc2c1OC(C)(CCCC(C)CCCC(C)CCCC(C)C)CC2 (stereo not shown) [δ-tocopherol],markers of inflammation in the blood,markers of inflammation,reduced markers of inflammation
same,relative biological activity,[6],0.03
HGH: hormone comprising a peptide chain that is synthesized in the pituitary gland,biological half-life,[8],10-20 minutes
